Test results reported in PMC4579270, “Identification and Characterization of an Irreversible Inhibitor of CDK2” (Chemistry & Biology, 2015).

How the values were obtained:
Test in all cases: Dundee protein kinase screen
Format in all cases: biochemical
SmMLCK = SmMLCK (Homo sapiens, UniProt Q15746); settings: read-out: %Remaining activity at 1µM NU6300
Outline: (§1)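 Selectivity panel of 131 protein kinases, inhibitor tested at a single concentration of 1 µM; values are % kinase activity remaining, mean of duplicates. Re-test of selected kinases used 0.5 µM in the standard format and again after a 4 hour pre-incubation with the inhibitor.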

TTBK1 = TTBK1 (Homo sapiens, UniProt Q5TCY1); settings: TTBK1, 1µM; read-out: %Remaining activity at 1µM NU6300
Outline: as §1

PKCζ = PKCζ (Homo sapiens, UniProt Q05513); settings: read-out: %Remaining activity at 1µM NU6300
Chain of PKCζ (Q05513 whole entry): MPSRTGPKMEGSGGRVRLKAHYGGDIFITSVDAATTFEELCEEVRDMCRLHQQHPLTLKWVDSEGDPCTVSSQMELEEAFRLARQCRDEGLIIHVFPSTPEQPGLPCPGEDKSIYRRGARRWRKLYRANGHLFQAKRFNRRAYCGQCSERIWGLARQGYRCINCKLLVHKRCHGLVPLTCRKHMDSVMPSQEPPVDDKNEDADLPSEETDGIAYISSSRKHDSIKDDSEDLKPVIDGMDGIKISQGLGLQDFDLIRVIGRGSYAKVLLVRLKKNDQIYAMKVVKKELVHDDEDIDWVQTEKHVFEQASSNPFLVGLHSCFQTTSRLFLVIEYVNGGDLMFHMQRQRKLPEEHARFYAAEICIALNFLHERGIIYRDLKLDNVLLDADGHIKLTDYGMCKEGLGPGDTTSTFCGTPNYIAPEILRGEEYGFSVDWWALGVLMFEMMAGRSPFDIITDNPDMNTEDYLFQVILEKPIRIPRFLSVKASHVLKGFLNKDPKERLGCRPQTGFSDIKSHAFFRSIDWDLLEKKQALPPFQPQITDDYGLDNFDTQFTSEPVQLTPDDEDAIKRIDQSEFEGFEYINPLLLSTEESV
Outline: as §1

DYRK1A = DYRK1A (Homo sapiens, UniProt Q13627); settings: read-out: %Remaining activity at 1µM NU6300
Outline: as §1

IRAK1 = IRAK1 (Homo sapiens, UniProt P51617); settings: IRAK1, 1µM; read-out: %Remaining activity at 1µM NU6300
Chain of IRAK1 (P51617 whole entry): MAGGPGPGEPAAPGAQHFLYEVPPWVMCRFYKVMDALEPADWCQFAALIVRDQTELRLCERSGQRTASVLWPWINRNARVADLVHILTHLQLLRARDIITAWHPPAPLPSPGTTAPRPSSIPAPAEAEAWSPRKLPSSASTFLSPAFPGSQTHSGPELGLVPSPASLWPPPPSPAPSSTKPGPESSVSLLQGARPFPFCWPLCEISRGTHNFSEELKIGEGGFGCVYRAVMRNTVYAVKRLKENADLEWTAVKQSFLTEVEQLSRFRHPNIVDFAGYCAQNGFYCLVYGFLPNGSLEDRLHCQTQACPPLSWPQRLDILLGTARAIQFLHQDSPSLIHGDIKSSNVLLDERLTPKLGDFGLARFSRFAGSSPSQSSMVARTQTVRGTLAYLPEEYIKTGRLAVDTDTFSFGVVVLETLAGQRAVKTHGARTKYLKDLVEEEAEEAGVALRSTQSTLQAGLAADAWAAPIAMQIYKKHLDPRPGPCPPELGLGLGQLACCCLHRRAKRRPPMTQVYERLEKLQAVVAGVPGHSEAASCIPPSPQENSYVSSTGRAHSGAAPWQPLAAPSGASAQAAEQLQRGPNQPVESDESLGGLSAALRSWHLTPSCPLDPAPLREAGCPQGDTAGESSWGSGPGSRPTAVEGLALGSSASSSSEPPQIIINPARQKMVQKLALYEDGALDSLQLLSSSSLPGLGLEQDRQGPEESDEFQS
Outline: as §1

MLK3 = MLK3 (Homo sapiens, UniProt Q16584); settings: MLK3, 1µM; read-out: %Remaining activity at 1µM NU6300
Outline: as §1

EPH-B3 = molecular target: T1, EPH-B3 (Homo sapiens, UniProt P54753); settings: EPH-B3, 1µM; read-out: %Remaining activity at 1µM NU6300
T1 sequence (P54753 34-998): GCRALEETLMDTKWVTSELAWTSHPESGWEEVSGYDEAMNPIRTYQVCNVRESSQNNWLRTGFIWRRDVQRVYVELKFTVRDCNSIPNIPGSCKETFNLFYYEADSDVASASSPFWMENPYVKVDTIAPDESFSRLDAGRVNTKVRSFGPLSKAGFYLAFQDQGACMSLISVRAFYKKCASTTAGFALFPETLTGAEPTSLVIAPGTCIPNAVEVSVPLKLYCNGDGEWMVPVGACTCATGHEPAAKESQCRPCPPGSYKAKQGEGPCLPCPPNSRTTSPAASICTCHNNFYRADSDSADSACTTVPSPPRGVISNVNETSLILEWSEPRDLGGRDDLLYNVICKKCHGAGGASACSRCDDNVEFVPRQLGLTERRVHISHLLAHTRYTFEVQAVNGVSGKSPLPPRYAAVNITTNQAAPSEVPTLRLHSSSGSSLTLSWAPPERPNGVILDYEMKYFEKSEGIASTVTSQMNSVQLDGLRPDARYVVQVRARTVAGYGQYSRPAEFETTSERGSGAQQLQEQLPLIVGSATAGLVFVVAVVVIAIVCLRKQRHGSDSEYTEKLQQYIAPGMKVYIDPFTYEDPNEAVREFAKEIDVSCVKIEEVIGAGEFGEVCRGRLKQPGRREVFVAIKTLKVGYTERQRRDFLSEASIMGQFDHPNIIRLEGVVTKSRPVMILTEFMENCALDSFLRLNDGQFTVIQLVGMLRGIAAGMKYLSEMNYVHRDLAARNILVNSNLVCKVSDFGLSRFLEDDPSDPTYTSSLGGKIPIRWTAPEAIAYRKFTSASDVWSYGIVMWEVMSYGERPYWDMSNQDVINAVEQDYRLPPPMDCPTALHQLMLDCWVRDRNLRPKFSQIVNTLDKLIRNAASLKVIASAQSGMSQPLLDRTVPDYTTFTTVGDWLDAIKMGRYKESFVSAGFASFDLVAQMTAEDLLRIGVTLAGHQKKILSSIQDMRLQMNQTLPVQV
Outline: as §1

S6K1 = S6K1 (Homo sapiens, UniProt P23443); settings: S6K1, 1µM; read-out: %Remaining activity at 1µM NU6300
Chain of S6K1 (P23443 whole entry): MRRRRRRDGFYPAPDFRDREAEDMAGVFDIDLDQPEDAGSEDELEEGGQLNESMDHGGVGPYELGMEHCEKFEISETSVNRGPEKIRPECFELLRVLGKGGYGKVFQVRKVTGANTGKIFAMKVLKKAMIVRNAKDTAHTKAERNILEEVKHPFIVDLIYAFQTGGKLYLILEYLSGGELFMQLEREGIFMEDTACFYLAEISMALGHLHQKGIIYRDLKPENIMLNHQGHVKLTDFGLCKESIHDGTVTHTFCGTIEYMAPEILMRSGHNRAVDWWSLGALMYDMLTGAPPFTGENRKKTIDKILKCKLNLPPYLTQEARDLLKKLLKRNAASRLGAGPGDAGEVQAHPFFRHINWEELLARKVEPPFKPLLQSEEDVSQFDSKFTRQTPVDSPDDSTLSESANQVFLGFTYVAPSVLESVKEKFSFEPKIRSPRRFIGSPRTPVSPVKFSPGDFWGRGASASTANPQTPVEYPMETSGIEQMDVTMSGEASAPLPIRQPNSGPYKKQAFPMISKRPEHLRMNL
Outline: as §1

PRK2 = PRK2 (Homo sapiens, UniProt Q16513); settings: PRK2, 1µM; read-out: %Remaining activity at 1µM NU6300
Chain of PRK2 (Q16513 whole entry): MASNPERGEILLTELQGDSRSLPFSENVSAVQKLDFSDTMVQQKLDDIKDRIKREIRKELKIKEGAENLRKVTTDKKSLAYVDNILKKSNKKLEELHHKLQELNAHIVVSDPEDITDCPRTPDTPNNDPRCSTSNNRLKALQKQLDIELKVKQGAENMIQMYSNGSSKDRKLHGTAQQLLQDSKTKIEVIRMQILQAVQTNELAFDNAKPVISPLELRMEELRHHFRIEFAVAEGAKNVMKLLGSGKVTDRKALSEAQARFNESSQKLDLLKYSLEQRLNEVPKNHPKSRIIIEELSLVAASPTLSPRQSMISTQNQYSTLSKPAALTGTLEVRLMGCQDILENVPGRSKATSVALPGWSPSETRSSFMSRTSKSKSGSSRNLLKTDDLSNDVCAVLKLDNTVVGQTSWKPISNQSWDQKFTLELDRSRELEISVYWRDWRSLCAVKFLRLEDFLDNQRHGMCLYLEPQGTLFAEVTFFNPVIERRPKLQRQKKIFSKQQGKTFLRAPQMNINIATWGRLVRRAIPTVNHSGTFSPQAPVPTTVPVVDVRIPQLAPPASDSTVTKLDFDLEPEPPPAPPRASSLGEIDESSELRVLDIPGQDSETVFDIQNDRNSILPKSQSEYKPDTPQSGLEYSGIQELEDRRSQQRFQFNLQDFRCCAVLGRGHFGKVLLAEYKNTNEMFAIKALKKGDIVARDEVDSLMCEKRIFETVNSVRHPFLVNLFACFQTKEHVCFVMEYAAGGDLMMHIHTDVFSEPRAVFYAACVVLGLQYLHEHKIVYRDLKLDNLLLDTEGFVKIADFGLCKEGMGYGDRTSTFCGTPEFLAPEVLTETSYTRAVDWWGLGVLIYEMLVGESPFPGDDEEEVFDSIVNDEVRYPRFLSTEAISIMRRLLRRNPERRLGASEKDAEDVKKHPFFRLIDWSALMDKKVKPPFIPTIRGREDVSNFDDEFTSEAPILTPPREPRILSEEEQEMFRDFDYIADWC
Outline: as §1

ZAP70 = ZAP70 (Homo sapiens, UniProt P43403); settings: ZAP70, 1µM; read-out: %Remaining activity at 1µM NU6300
Chain of ZAP70 (P43403 whole entry): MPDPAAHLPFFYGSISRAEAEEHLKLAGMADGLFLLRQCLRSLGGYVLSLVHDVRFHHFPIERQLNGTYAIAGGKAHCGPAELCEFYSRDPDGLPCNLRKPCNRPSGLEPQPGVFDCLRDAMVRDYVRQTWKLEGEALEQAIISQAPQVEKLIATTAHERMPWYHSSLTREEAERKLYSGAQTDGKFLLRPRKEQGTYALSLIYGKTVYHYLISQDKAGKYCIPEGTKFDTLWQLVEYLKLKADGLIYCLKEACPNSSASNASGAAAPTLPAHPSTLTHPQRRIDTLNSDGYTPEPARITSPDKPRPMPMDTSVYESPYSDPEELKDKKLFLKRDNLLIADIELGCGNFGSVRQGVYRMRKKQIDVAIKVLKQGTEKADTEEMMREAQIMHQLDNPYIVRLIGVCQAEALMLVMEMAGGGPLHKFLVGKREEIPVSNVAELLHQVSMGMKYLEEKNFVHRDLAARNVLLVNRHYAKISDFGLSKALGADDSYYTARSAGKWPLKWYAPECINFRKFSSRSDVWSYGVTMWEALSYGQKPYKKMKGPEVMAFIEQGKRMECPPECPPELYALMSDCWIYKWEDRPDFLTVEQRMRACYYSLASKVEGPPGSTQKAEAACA
Outline: as §1

Chain of SmMLCK (Q15746 923-1914): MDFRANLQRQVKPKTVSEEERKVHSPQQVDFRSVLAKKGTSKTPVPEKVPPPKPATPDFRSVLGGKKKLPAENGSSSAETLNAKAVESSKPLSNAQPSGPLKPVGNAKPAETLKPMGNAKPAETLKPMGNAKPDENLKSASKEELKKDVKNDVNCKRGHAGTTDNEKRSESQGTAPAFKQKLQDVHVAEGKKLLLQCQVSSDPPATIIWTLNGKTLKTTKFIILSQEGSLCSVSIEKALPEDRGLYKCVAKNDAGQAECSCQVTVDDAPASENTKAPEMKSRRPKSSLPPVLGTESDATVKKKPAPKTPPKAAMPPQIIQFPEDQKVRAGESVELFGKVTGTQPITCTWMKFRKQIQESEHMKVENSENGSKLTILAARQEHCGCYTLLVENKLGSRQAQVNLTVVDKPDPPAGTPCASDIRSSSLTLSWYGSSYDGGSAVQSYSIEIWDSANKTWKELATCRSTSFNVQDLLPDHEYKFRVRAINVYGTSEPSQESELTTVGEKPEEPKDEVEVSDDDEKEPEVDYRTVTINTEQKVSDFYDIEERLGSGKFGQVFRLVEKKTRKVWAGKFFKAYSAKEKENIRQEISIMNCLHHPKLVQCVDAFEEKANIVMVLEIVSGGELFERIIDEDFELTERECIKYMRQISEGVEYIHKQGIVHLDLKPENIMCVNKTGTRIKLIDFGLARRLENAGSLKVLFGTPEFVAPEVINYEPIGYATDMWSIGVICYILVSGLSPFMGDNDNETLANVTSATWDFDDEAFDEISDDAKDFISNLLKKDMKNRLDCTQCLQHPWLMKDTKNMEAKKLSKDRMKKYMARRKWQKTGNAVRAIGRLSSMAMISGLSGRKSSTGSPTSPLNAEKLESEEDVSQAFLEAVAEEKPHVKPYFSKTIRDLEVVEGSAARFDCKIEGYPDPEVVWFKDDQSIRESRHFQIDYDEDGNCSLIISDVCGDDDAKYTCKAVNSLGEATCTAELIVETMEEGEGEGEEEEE

Which remaining activity at 1 µM (SmMLCK) does the source give for C=CS(=O)(=O)c1ccc(Nc2nc(OCC3CCCCC3)c3nc[nH]c3n2)cc1 [NU6300, 6-(cyclohexylmethoxy)-N-(4-(vinylsulfonyl)phenyl)-9H-purin-2-amine] here?
Its remaining activity at 1 µM is 85%.

What about the remaining activity at 1 µM (TTBK1) of the same molecule?
Its remaining activity at 1 µM is 83%.

And the remaining activity at 1 µM (PKCζ)?
Its remaining activity at 1 µM is 100%.

What about the remaining activity at 1 µM (DYRK1A) of the same molecule?
Its remaining activity at 1 µM is 73%.

And the remaining activity at 1 µM (IRAK1)?
The remaining activity at 1 µM was 37%.

What about the remaining activity at 1 µM (MLK3) of the same molecule?
Its remaining activity at 1 µM is 16%.

And the remaining activity at 1 µM (EPH-B3)?
The remaining activity at 1 µM was 14%.

And the remaining activity at 1 µM (S6K1)?
Its remaining activity at 1 µM is 82%.

What about the remaining activity at 1 µM (PRK2) of the same molecule?
Its remaining activity at 1 µM is 50%.

And the remaining activity at 1 µM (ZAP70)?
The remaining activity at 1 µM was 90%.
